Test results as given in patent publication US10913738B2 (BRISTOL-MYERS SQUIBB COMPANY, priority 2017, dated 2021).
Like-named read-outs stand apart in the source and are kept apart here.

Columns and labels:
[1] = test system: MLKL phosphorylation in HT29-L23 human colorectal adenocarcinoma cells; assay: MLKL Phosphorylation High-Content Assay; format: cell-based; details: Homo sapiens
Procedure: MLKL Phosphorylation High-Content Assay
Following six hours incubation at 37° C. […] MLKL phosporylation was detected using anti-MLKL (phospho S358) antibody (Abcam #ab187091) (1:1000 dilution in Blocking Buffer [PBS supplemented with 0.1% BSA]) with overnight incubation at 4° C. […] Following another three cycles of washes in PBS, the microplates were sealed, and cellular images were acquired in the Cellomics ArrayScan VTI high-content imager equipped with an X1 camera. […] The image sets were analyzed using the Compartmental Analysis Bioapplication software (Cellomics). The level of MLKL phosphorylation was quantified as MEAN CircRingAvgIntenRatio. […] The data were fitted using the 4-parameter logistic equation to calculate the IC50 and Ymax values.

[2] = target: T1, His-GST-TVMV-hRIPK1(1-324) (Homo sapiens, UniProt Q13546); assay: RIPK1 HTRF Binding Assay
T1 construct: The coding region of human RIPK1(1-324) flanked by NdeI site at 5′ end; made in house; host or cells: Spodoptera frugiperda (Sf9) insect cells, baculovirus
T1 sequence (Q13546 1-324): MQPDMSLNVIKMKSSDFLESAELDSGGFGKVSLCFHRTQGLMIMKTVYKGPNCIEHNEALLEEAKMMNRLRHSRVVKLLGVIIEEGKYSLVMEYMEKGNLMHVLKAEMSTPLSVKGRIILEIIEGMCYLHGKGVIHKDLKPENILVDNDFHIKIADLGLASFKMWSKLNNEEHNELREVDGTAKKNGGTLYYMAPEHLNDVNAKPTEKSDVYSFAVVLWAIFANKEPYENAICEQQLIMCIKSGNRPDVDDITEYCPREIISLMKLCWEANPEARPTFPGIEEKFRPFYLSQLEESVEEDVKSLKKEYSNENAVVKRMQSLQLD
Procedure: The plate was incubated at rt for 1 h.
Cloning and Baculovirus Expression of RIPK1 Construct
Baculovirus was generated for the construct using the Bac-to-Bac baculovirus expression system (Invitrogen) according to the manufacturer's protocol. Briefly, recombinant bacmid was isolated from transformed DH10Bac E. coli competent cells (Invitrogen) and used to transfect Spodoptera frugiperda (Sf9) insect cells (Invitrogen). Baculovirus was harvested 72 hours post transfection and a virus stock was prepared by infecting fresh Sf9 cells at a 1/1000 (v/v) ratio for 66 hours.
The production was carried out either at a 10 L scale in a 22 L cellbag (GE Healthcare Bioscience, Pittsburgh, Pa.) or at a 20 L scale in a 50 L cellbag using WAVE-Bioreactor System 20/50 (GE Healthcare Bioscience). The infected cells were harvested by centrifugation at 2000 rpm for 20 min at 4° C. in a SORVALL® RC12BP centrifuge. The cell pellets was stored at −70° C. before protein was purified.
RIPK1 containing cell paste was resuspended in 50 mM Tris pH 7.5, 150 mM NaCl, 10 mM imidazole, 5% glycerol, 5 mM MgSO4, 1 mM TCEP, 25 U/ml Benzonase, and Complete Protease Inhibitor tablets (1/50 ml, Roche Diagnostics, Indianapolis, Ind.). […] The suspension was clarified by centrifugation at 136,000×g for 40 min, at 4° C. The lysate was decanted from the pellet and passed through a 5 ml NiNTA Superflow cartridge (Qiagen, Valencia, Calif.) using an AKTA Pure (GE Healthcare). Column was eluted with 10 CV linear gradient into 50 mM Tris 7.5, 150 mM NaCl, 500 mM imidazole, 5% glycerol, 1 mM TCEP. Peak fractions were pooled and loaded directly onto 5 ml GSTrap 4B column (GE Healthcare). Column was washed with 50 mM Tris 7.0, 150 mM NaCl, 5% glycerol, 1 mM DTT and eluted in 10 CV linear gradient into 50 mM Tris 8.0, 150 mM NaCl, 20 mM reduced glutathione, 5% glycerol, 1 mM DTT. Fractions identified by SDS-PAGE as containing RIPK1 were pooled and concentrated using 30 kDa MWCO spin concentrators (Amicon Ultra-15, Millipore, Billerica, Mass.) and loaded onto a HiLoad 26/600 Superdex 200 column (GE Healthcare) equilibrated in 25 mM Tris 7.5, 150 mM NaCl, 2 mM TCEP, 5% glycerol.
Protein was aliquoted and stored at −80° C.

[3] = x marks IC50 class >200 nM, read-out: pMLKL cell activity >200 nM
[4] = x marks IC50 class 20-200 nM, read-out: pMLKL cell activity 20-200 nM
[5] = x marks IC50 class 20-200 nM, read-out: RIPK1 HTRF binding 20-200 nM
[6] = x marks IC50 class <20 nM, read-out: RIPK1 HTRF binding <20 nM
[7] = x marks IC50 class <20 nM, read-out: pMLKL cell activity <20 nM

Row | SMILES | IC50 [1, 4] [nM] | IC50 [2, 5] [nM] | IC50 [2, 6] [nM] | other results
1 | Nc1nc2cc(-c3cnc(Cl)c(C(=O)NCc4ccc(F)cc4OCC4CC4)c3)ccn2n1 [Example 1, 5-(2-Amino-[1,2,4]triazolo[1,5-a]pyridin-7-yl)-2-chloro-N-([2-(cyclopropylmethoxy)-4-fluorophenyl]methyl)pyridine-3-carboxamide] | – | – | – | IC50 [1, 3]: > 200 nM; IC50 ([2]; x marks IC50 class >200 nM, read-out: RIPK1 HTRF binding >200 nM): > 200 nM
2 | [2H]C([2H])(NC(=O)c1cc(-c2ccn3nc(N)nc3c2)cnc1OC)c1ccccc1OC(F)(F)F [Example 2, 5-{2-Amino-[1,2,4]triazolo[1,5-a]pyridin-7-yl}-2-methoxy-N-{[2-(trifluoromethoxy)phenyl](^2H)methyl}pyridine-3-carboxamide] | 20 to 200 | 20 to 200 | – | –
3 | COc1nc(C)c(-c2ccn3nc(N)nc3c2)cc1C(=O)NCc1ccccc1OCC1CC(=O)C1 [Example 3, 5-{2-Amino-[1,2,4]triazolo[1,5-a]pyridin-7-yl}-2-methoxy-6-methyl-N-({2-[(3-oxocyclobutyl)methoxy]phenyl}methyl)pyridine-3-carboxamide] | 20 to 200 | 20 to 200 | – | –
4 | COc1nc(C)c(-c2ccn3nc(N)nc3c2)cc1C(=O)NCc1ccccc1OCC1CC(F)(F)C1 [Example 4, 5-{2-Amino-[1,2,4]triazolo[1,5-a]pyridin-7-yl}-N-({2-[(3,3-difluorocyclobutyl)methoxy]phenyl}methyl)-2-methoxy-6-methylpyridine-3-carboxamide] | 20 to 200 | – | < 20 | –
5 | Cc1ncc(-c2ccn3nc(N)nc3c2)cc1C(=O)NCc1ccccc1OC1CCOCC1 [Example 5, 5-{2-Amino-[1,2,4]triazolo[1,5-a]pyridin-7-yl}-2-methyl-N-{[2-(oxan-4-yloxy)phenyl]methyl}pyridine-3-carboxamide] | 20 to 200 | – | < 20 | –
6 | COc1nc(C)c(-c2ccn3nc(N)nc3c2)cc1C(=O)NCc1ccccc1OC1CCOC1 (stereo not shown) [Example 6, 5-{2-Amino-[1,2,4]triazolo[1,5-a]pyridin-7-yl}-2-methoxy-6-methyl-N-{[2-(oxolan-3-yloxy)phenyl]methyl}pyridine-3-carboxamide] | – | – | < 20 | IC50 [1, 7]: < 20 nM
7 | COc1nc(C)c(-c2ccn3nc(N)nc3c2)cc1C(=O)NCc1ccccc1OCC1CCCCC1 [Example 7, 5-{2-Amino-[1,2,4]triazolo[1,5-a]pyridin-7-yl}-N-{[2-(cyclohexylmethoxy)phenyl]methyl}-2-methoxy-6-methylpyridine-3-carboxamide] | 20 to 200 | – | < 20 | –
8 | COc1nc(C)c(-c2ccn3nc(N)nc3c2)cc1C(=O)NCc1cccnc1OCC1CCCC1 [Example 8, 5-{2-Amino-[1,2,4]triazolo[1,5-a]pyridin-7-yl}-N-{[2-(cyclopentylmethoxy)pyridin-3-yl]methyl}-2-methoxy-6-methylpyridine-3-carboxamide] | 20 to 200 | – | < 20 | –
9 | COc1nc(C)c(-c2ccn3nc(N)nc3c2)cc1C(=O)NCc1cc(F)cc(F)c1OCC1CC1 [Example 9, 5-{2-Amino-[1,2,4]triazolo[1,5-a]pyridin-7-yl}-N-{[2-(cyclopropylmethoxy)-3,5-difluorophenyl]methyl}-2-methoxy-6-methylpyridine-3-carboxamide] | – | – | < 20 | IC50 [1, 7]: < 20 nM
10 | COc1ncc(-c2ccn3nc(N)nc3c2)cc1C(=O)NCc1ccccc1OCC1CCC(C)CC1 (stereo not shown) [Example 10, 5-{2-Amino-[1,2,4]triazolo[1,5-a]pyridin-7-yl}-2-methoxy-N-({2-[(4-methylcyclohexyl)methoxy]phenyl}methyl)pyridine-3-carboxamide] | – | 20 to 200 | – | IC50 [1, 3]: > 200 nM
11 | COc1nc(C)c(-c2ccn3nc(N)nc3c2)cc1C(=O)NCc1ccccc1OCC1CCC(F)(F)CC1 [Example 11, 5-{2-Amino-[1,2,4]triazolo[1,5-a]pyridin-7-yl}-N-({2-[(4,4-difluorocyclohexyl)methoxy]phenyl}methyl)-2-methoxy-6-methylpyridine-3-carboxamide] | – | – | < 20 | IC50 [1, 3]: > 200 nM
12 | Cc1ncc(-c2ccn3nc(N)nc3c2)cc1C(=O)NCc1ncccc1OCC1CCCC1 [Example 12, 5-{2-amino-[1,2,4]triazolo[1,5-a]pyridin-7-yl}-N-{[3-(cyclopentylmethoxy)pyridin-2-yl]methyl}-2-methylpyridine-3-carboxamide] | 20 to 200 | – | < 20 | –
13 | CCOc1ncc(-c2ccn3nc(N)nc3c2)cc1C(=O)NCc1c(F)cc(F)cc1OCC1CCCC1 [Example 13, 5-{2-Amino-[1,2,4]triazolo[1,5-a]pyridin-7-yl}-N-{[2-(cyclopentylmethoxy)-4,6-difluorophenyl]methyl}-2-ethoxypyridine-3-carboxamide] | – | 20 to 200 | – | IC50 [1, 3]: > 200 nM
14 | CCOc1ncc(-c2ccn3nc(N)nc3c2)cc1C(=O)NCc1cc(F)cc(F)c1OCC1CCCC1 [Example 14, 5-{2-Amino-[1,2,4]triazolo[1,5-a]pyridin-7-yl}-N-{[2-(cyclopentylmethoxy)-3,5-difluorophenyl]methyl}-2-ethoxypyridine-3-carboxamide] | 20 to 200 | – | < 20 | –
15 | Cc1ncc(-c2ccn3nc(N)nc3c2)cc1C(=O)NCc1c(F)cccc1OCC1CCCC1 [Example 15, 5-{2-Amino-[1,2,4]triazolo[1,5-a]pyridin-7-yl}-N-{[2-(cyclopentylmethoxy)-6-fluorophenyl]methyl}-2-methylpyridine-3-carboxamide] | – | – | < 20 | IC50 [1, 7]: < 20 nM
16 | Cc1nc(C)c(-c2ccn3nc(N)nc3c2)cc1C(=O)NCc1ccccc1OC(C)C1CCCC1 (stereo not shown) [Example 16, 5-{2-Amino-[1,2,4]triazolo[1,5-a]pyridin-7-yl}-N-{[2-(1-cyclopentylethoxy)phenyl]methyl}-2,6-dimethylpyridine-3-carboxamide] | 20 to 200 | – | < 20 | –
17 | Cc1ncc(C(=O)NCc2ncccc2OC2CCCC2)cc1-c1ccn2nc(N)nc2c1 [Example 17, 5-{2-Amino-[1,2,4]triazolo[1,5-a]pyridin-7-yl}-N-{[3-(cyclopentyloxy)pyridin-2-yl]methyl}-6-methylpyridine-3-carboxamide] | 20 to 200 | – | < 20 | –
18 | Cc1ncc(-c2ccn3nc(N)nc3c2)cc1C(=O)NCc1ccc(F)cc1OCC1CCCC1 [Example 18, 5-{2-Amino-[1,2,4]triazolo[1,5-a]pyridin-7-yl}-N-{[2-(cyclopentylmethoxy)-4-fluorophenyl]methyl}-2-methylpyridine-3-carboxamide] | – | 20 to 200 | – | IC50 [1, 3]: > 200 nM
19 | Nc1nc2cc(-c3cnc(C4CC4)c(C(=O)NCc4cccc(OC(F)(F)F)c4)c3)ccn2n1 [Example 19, 5-{2-Amino-[1,2,4]triazolo[1,5-a]pyridin-7-yl}-2-cyclopropyl-N-{[3-(trifluoromethoxy)phenyl]methyl}pyridine-3-carboxamide] | 20 to 200 | 20 to 200 | – | –
20 | Cc1ncc(-c2ccn3nc(N)nc3c2)cc1C(=O)NCc1cc(F)ccc1OCC1CCCC1 [Example 20, 5-{2-Amino-[1,2,4]triazolo[1,5-a]pyridin-7-yl}-N-{[2-(cyclopentylmethoxy)-5-fluorophenyl]methyl}-2-methylpyridine-3-carboxamide] | 20 to 200 | – | < 20 | –
